Laboratory results reported in patent publication US20260166128A1, “HUMAN AMYLIN ANALOG, AND DERIVATIVE THEREOF AND USE THEREOF” (priority 2022, published 2026).
Entries after “also recorded” stand apart in the source; their conditions may differ. Where two headings read alike, the source gives them in different places. Numbered stars: 1 amine (or outer) side, 2 acyl side, 3 side chain; on linkers, the order of the positions; unused ones are H or OH. Bridge positions count the residues as written; N and C are the ends. Square brackets hold non-standard residues; d marks the D form. Primed or numbered codes have the meaning given here. Peptide text beside a SMILES is read from it. * marks the point of attachment. C20 diacid = O=C(O)CCCCCCCCCCCCCCCCCCC(=O)*; γGlu = O=C(O)[C@H](CCC(=O)[*:2])N[*:1]; Hyp = O=C(O)[C@@H]1C[C@@H](O)CN1; Trx′ = not defined here; AEEA = NCCOCCOCC(=O)O

How the values were obtained:
[1] = Study on fatty acid side chain of derivatives, weight reduction in SD rats (Example 7); assay type: in vivo; conditions: subcutaneous, 30 nmol/kg
Source text: SD rats obtained by the same method as in Example 5 were used in this experimental study. There were an experimental group E: for testing weight reduction effects of the compounds PD065 and PD187, and an experimental group F: for testing the compounds PD065, PD071, PD140, PD144, PD145, PD146 and PD147, with 5 to 8 rats in each group of the derivative test, and the rats in each group were subcutaneously administered with a derivative or a solvent by a dosage of 30 nmol/kg. The administration time of each group was recorded. After administration, the rats were put back into their cages in which food and water available for the rats were placed. Food consumption and weight changes of the rats were recorded every 24 hours by online recording or manual recording.

[2] = Freeze-thaw stability of derivatives (freeze-thaw yield by liquid chromatography); assay type: physicochemical; conditions: for Dissolution property: appearance after dissolution at 0.2 mg/ml in 20 mM phosphate buffer solution (PB) (pH 7.0); for Freeze storage property: appearance after overnight storage at −20° C. and thawing to room temperature, 0.2 mg/ml in 20 mM PB (pH 7.0); for Freeze storage yield: concentration of polypeptide after freezing and thawing / concentration before, by liquid chromatography, −20° C. overnight
In short: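 Lyophilised peptide derivative dissolved at 0.2 mg/ml in 20 mM phosphate buffer, pH 7.0, frozen overnight at −20° C, then thawed at room temperature. Peptide concentration before and after freeze-thaw measured by reversed-phase HPLC on centrifuged supernatant; yield = post-thaw/pre-thaw concentration.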

human amylin receptor = molecular target: T1, human amylin receptor (Homo sapiens, UniProt O60896+P30988); assay: Luciferase assay of amylin derivatives in amylin receptor/CRE-luc CHO cell line; assay type: cell-based; conditions: 24 hours incubation, F12 medium containing 10% FBS
T1 construct: host or cells: CHO-K1/Ga15/AMY3 cells, further stably transfected with a CRE-luciferase plasmid
T1 sequence (P30988 25-474): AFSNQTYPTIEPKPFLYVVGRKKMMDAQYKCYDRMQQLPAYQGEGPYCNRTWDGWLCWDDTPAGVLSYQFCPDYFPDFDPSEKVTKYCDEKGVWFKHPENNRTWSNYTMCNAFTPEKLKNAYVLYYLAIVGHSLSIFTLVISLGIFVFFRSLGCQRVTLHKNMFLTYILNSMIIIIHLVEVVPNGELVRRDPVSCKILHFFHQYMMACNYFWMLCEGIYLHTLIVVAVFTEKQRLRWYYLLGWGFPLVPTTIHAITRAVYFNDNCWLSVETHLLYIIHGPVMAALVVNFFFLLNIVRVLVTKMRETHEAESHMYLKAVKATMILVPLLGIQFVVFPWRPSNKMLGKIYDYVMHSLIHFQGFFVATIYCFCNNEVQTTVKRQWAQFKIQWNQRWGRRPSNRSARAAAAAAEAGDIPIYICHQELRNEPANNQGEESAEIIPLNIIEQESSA
T1 sequence (O60896 24-148 partner): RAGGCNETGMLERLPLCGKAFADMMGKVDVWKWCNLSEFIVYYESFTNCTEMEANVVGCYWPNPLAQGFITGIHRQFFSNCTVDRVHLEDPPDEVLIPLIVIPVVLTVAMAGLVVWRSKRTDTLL
Experimental: The experiment was intended to detect the activity or efficacy of the amylin derivatives on a human amylin receptor in vitro by luciferase assay.
50 μL of growth medium (F12 medium containing 10% FBS) was added into each well of a white 96-well plate, and the stably transfected amylin/CRE-lue CHO cells were inoculated into the white 96-well plate at a density of about 20,000 cells/well for activity determination.

[3] = Weight loss efficacy of derivatives in SD rats (Example 5); assay type: in vivo, SD (Sprague Dawley) rats; conditions: subcutaneous, 30 nmol/kg
Source text: SD (Sprague Dawley) rats weighing 200 g to 250 g were selected for this experimental study. Before the experiment, the rats arrived for at least 10 days to 14 days to adapt to the experimental environment. During this period, the rats were fed for two weeks in a reversed light/dark stage (meaning that the light was turned off during the day and turned on during the night) after arrival, and were fed separately in the first week of arrival to ensure accurate data and high test sensitivity, and the rats were free to obtain food and water during the whole adaptation period and experimental period. There were an experimental group [NT]5 and A6, and an experimental group B: B1, B2, B3, B4 and B5, with 5 to 8 rats in each treatment group of the derivative, and the rats in each group were subcutaneously administered with a derivative or a solvent by a dosage of 30 nmol/kg. The administration time of each group was recorded. After administration, the rats were put back into their cages in which the rats could get food and water. Food consumption and weight changes of the rats were recorded every 24 hours by online recording or manual recording. Weight and food intake changes of the SD rats in each group were as shown in FIG. 2A to FIG. 2D, Table 9 and Table 10.

[4] = Weight loss effect of dosage of derivatives in SD rats (Example 6); assay type: in vivo; conditions: subcutaneous
Experimental: SD rats obtained by the same method as in Example 5 were used in this experimental study. There were an experimental group C: C1 to C13, and an experimental group D: D1 to D7, with 5 to 8 rats in each group of the derivative test, and according to administration schemes as shown in Table 11 and Table 12, the rats in each group […] The administration time of each group was recorded. After administration, the rats were put back into their cages in which the rats could get food and water. Food consumption and weight changes of the rats were recorded every 24 hours by online recording or manual recording. Weight and cumulative food intake changes of the SD rats in each group were as shown in FIG. 3A to FIG. 3D, FIG. 4A to FIG. 4B, Table 11 and Table 12.

[5] = assay type: physicochemical; conditions: 40° C.
Experimental: The penicillin bottle after covering was placed in a stability test box at 40° C. Before testing, a sample was centrifuged at 10,000 rpm and 4° C. for 3 minutes, and a supernatant was taken and added into a liquid-phase sample injection bottle. The sample was detected by the liquid phase method in Example 3.

[6] = EC50, CHO-K1/Ga15/AMY3 CRE-luc cells
[7] = experimental group C, 10 nmol/kg
[8] = experimental group C, 30 nmol/kg
[9] = experimental group C, 100 nmol/kg
[10] = experimental group D, 10 nmol/kg
[11] = experimental group D, 30 nmol/kg
[12] = experimental group D, 100 nmol/kg

Compound: PD146: KCNTATCATQRLADFLRHSSNNLKPILPPTNVGSNT-trans-Hyp-NH2; N-terminal; Trx + C20 diacid ({C20 diacid-Trx′}-KCNTATCATQRLADFLRHSSNNLKPILPPTNVGSNT-{trans‑Hyp-NH2}; disulfide 2-7 (inferred); reading uncertain; also: printed as KCNTATCATQRLADFLRHSSNNLKPILPPTNVGSNT-trans-Hyp-NH2)
- activity (weight reduction effect) compared with PD065 [1]: better than that of the PD065
- Dissolution property [2]: Clear
- Freeze storage property [2]: Clear
- Freeze storage yield [2]: 101.09%

Compound: CC[C@H](C)[C@H](NC(=O)[C@@H]1CCCN1C(=O)[C@H](CCCCN)NC(=O)[C@H](CC(C)C)NC(=O)[C@H](CC(N)=O)NC(=O)[C@H](CC(N)=O)NC(=O)[C@H](CO)NC(=O)[C@H](CO)NC(=O)[C@H](Cc1c[nH]cn1)NC(=O)[C@H](CCCNC(=N)N)NC(=O)[C@H](CC(C)C)NC(=O)[C@H](Cc1ccccc1)NC(=O)[C@H](CC(=O)O)NC(=O)[C@H](C)NC(=O)[C@H](CC(C)C)NC(=O)[C@H](CCCNC(=N)N)NC(=O)[C@H](CCC(N)=O)NC(=O)[C@@H](NC(=O)[C@H](C)NC(=O)[C@@H]1CSSC[C@H](NC(=O)[C@H](CCCCN)NC(=O)COCCOCCNC(=O)COCCOCCNC(=O)CCCCCCCCCCCCCCCCCCC(=O)O)C(=O)N[C@@H](CC(N)=O)C(=O)N[C@@H]([C@@H](C)O)C(=O)N[C@@H](C)C(=O)N[C@@H]([C@@H](C)O)C(=O)N1)[C@@H](C)O)C(=O)N[C@@H](CC(C)C)C(=O)N1CCC[C@H]1C(=O)N1CCC[C@H]1C(=O)N[C@H](C(=O)N[C@@H](CC(N)=O)C(=O)N[C@H](C(=O)NCC(=O)N[C@@H](CO)C(=O)N[C@@H](CC(N)=O)C(=O)N[C@H](C(=O)N1C[C@H](O)C[C@H]1C(N)=O)[C@@H](C)O)C(C)C)[C@@H](C)O [PD187] ({C20 diacid-AEEA-AEEA}-KCNTATCATQRLADFLRHSSNNLKPILPPTNVGSNT[Hyp]-NH2; disulfide 2-7 (inferred))
- activity (weight reduction effect) compared with PD065 [1]: better than that of the PD065; also recorded: better weight reduction effect
- EC50 (human amylin receptor; [6]): 0.016 nM

Compound: CC[C@H](C)[C@H](NC(=O)[C@@H]1CCCN1C(=O)CNC(=O)[C@H](Cc1ccccc1)NC(=O)[C@H](CC(N)=O)NC(=O)[C@H](CC(N)=O)NC(=O)[C@H](CO)NC(=O)[C@H](CO)NC(=O)[C@H](Cc1c[nH]cn1)NC(=O)[C@H](CCCNC(=N)N)NC(=O)[C@H](CC(C)C)NC(=O)[C@H](Cc1ccccc1)NC(=O)[C@H](CCC(=O)O)NC(=O)[C@H](C)NC(=O)[C@H](CC(C)C)NC(=O)[C@H](CCCNC(=N)N)NC(=O)[C@H](CCC(N)=O)NC(=O)[C@@H](NC(=O)[C@H](C)NC(=O)[C@@H]1CSSC[C@H](NC(=O)[C@H](CCCCN)NC(=O)CC[C@H](NC(=O)CCCCCCCCCCCCCCCCCCC(=O)O)C(=O)O)C(=O)N[C@@H](CC(N)=O)C(=O)N[C@@H]([C@@H](C)O)C(=O)N[C@@H](C)C(=O)N[C@@H]([C@@H](C)O)C(=O)N1)[C@@H](C)O)C(=O)N[C@@H](CC(C)C)C(=O)N1CCC[C@H]1C(=O)N1CCC[C@H]1C(=O)N[C@H](C(=O)N[C@@H](CC(N)=O)C(=O)N[C@H](C(=O)NCC(=O)N[C@@H](CO)C(=O)N[C@@H](CC(N)=O)C(=O)N[C@H](C(=O)N1CCC[C@H]1C(N)=O)[C@@H](C)O)C(C)C)[C@@H](C)O [PD065, Cagrilintide]
- Weight change rate at 48th hour ([3]; experimental group A): −6.13
- Weight change rate at 48th hour ([3]; experimental group B): −6.74
- Cumulative food intake at 72nd hour [4, 7]: 78.31 g
- Weight change rate at 72nd hour [4, 7]: 1.59%
- Cumulative food intake at 72nd hour [4, 8]: 60.22 g
- Weight change rate at 72nd hour [4, 8]: 0.46%
- Cumulative food intake at 72nd hour [4, 9]: 44.41 g
- Weight change rate at 72nd hour [4, 9]: −6.61%
- Cumulative food intake at 72nd hour [4, 10]: 64.27 g
- Weight change rate at 72nd hour [4, 10]: 5.95%
- Cumulative food intake at 72nd hour [4, 11]: 48.00 g
- Weight change rate at 72nd hour [4, 11]: 2.81%
- Cumulative food intake at 72nd hour [4, 12]: 33.89 g
- Weight change rate at 72nd hour [4, 12]: −3.81%
- Dissolution property [2]: Clear
- Freeze storage property [2]: Clear
- Freeze storage yield [2]: 93.44%
- EC50 (human amylin receptor; [6]): 0.038 nM
- Decrease percentage of protein concentration ([5]; pH about 7.4, 0 d): 0.00%
- Protein concentration ([5]; pH about 7.4, 0 d): 0.81 mg/mL
- Decrease percentage of protein concentration ([5]; pH about 7.4, 7 d): 22.35%
- Protein concentration ([5]; pH about 7.4, 7 d): 0.63 mg/mL
- Decrease percentage of protein concentration ([5]; pH about 7.4, 15 d): 46.78%
- Protein concentration ([5]; pH about 7.4, 15 d): 0.43 mg/mL

Compound: CC[C@H](C)[C@H](NC(=O)[C@@H]1CCCN1C(=O)[C@H](CCCNC(=N)N)NC(=O)[C@H](CC(C)C)NC(=O)[C@H](CC(N)=O)NC(=O)[C@H](CC(N)=O)NC(=O)[C@H](CO)NC(=O)[C@H](CO)NC(=O)[C@H](Cc1c[nH]cn1)NC(=O)[C@H](CCCNC(=N)N)NC(=O)[C@H](CC(C)C)NC(=O)[C@H](Cc1ccccc1)NC(=O)[C@H](CC(=O)O)NC(=O)[C@H](C)NC(=O)[C@H](CC(C)C)NC(=O)[C@H](CCCNC(=N)N)NC(=O)[C@H](CCC(N)=O)NC(=O)[C@@H](NC(=O)[C@H](C)NC(=O)[C@@H]1CSSC[C@H](NC(=O)[C@H](CCCCN)NC(=O)CC[C@H](NC(=O)CCCCCCCCCCCCCCCCCCC(=O)O)C(=O)O)C(=O)N[C@@H](CC(N)=O)C(=O)N[C@@H]([C@@H](C)O)C(=O)N[C@@H](C)C(=O)N[C@@H]([C@@H](C)O)C(=O)N1)[C@@H](C)O)C(=O)N[C@@H](CC(C)C)C(=O)N1CCC[C@H]1C(=O)N1CCC[C@H]1C(=O)N[C@H](C(=O)N[C@@H](CC(N)=O)C(=O)N[C@H](C(=O)NCC(=O)N[C@@H](CO)C(=O)N[C@@H](CC(N)=O)C(=O)N[C@H](C(=O)N1CCC[C@H]1C(N)=O)[C@@H](C)O)C(C)C)[C@@H](C)O [PD161] ({C20 diacid-γGlu}-KCNTATCATQRLADFLRHSSNNLRPILPPTNVGSNTP-NH2; disulfide 2-7 (inferred))
- Weight change rate at 48th hour ([3]; experimental group B): −7.81
- EC50 (human amylin receptor; CHO-K1/Ga15/AMY3 CRE-luc cells, read-out: EC50): 0.026 nM
